Patent US20260014125A1, “BICYCLIC-TYPE MAT2A INHIBITOR AND USE THEREOF” (HAIHE BIOPHARMA CO., LTD., priority 2022, published 2026)

Columns and labels:
KP-4 cells = experiment: Human pancreatic cancer KP-4 cell activity inhibition test (CellTiter-Glo); assay type: cell-based; details: Homo sapiens, 120 h, 5 days
Procedure: Experimental principle: after co-incubating the MAT2A inhibitor to be tested with KP-4 cells for a period of time, a cell viability measurement method based on ATP content is used to characterize the effect of the tested compound on cell viability.
Experimental material: KP-4 cells (JCRB #JCRB0182); IMDM (Gibco 912440061); fetal bovine serum (EXCELL #FND500); penicillin-streptomycin (Gibco #15140-122); 0.25% Typsin-EDTA (Gibco #252(101-072); DMSO (Sigma #D2650); 96 well plate (Corning #3610); CellTiter-Glo (Promega #G7571)
1. KP-4 cells were cultured in IMDM culture medium containing 10% e fetal bovine serum and 1% penicillin-streptomycin at 37° C. and 5% CO2 in a cell culture incubator. Only cells in logarithmic growth phase were used for subsequent experiments.
2. The cells in logarithmic growth phase were inoculated into a 96 well plate, with a seeding quantity of 500 cells per well, and incubated overnight in a cell culture incubator at 37′C and 5% CO2.
3. The compound was dissolved with DMSO, diluted with culture medium to 10 different concentrations (approximately […]), 3333.3, 1111.1, 370, 123, 41.2, 13.7, 4.6, 1.5, and 0.5 nM) before adding it to the cell plate, and cultured at 37° C. and 5% CO2 for 5 days.
4. CellTiter-Glo reagent was added, and an enzyme-linked immunosorbent assay reader was used to detect cell viability.
Data analysis: the inhibition rate (%) of the compound was calculated and fitted to obtain the IC50 of the tested compound. Calculation method for compound inhibition rate: Compound inhibition rate (%)=(Signal_max−Signal_sample)/(Signal_max−Signal_min)×100, wherein Signal_sample was the sample well reading, indicating the cell activity of the compound inhibition well; Signal_min was the positive control well reading, indicating the background activity without cells; and Signal_max was the negative control well reading, indicating the cell activity of the well without compound inhibition.

MAT2A = MAT2A (Homo sapiens (Human), UniProt P31153); experiment: Biochemical test: inhibition of MAT2A enzyme activity (phosphate detection, OD620); details: MAT2A his-tag; 150 minutes enzymatic reaction
Chain of MAT2A (P31153 whole entry): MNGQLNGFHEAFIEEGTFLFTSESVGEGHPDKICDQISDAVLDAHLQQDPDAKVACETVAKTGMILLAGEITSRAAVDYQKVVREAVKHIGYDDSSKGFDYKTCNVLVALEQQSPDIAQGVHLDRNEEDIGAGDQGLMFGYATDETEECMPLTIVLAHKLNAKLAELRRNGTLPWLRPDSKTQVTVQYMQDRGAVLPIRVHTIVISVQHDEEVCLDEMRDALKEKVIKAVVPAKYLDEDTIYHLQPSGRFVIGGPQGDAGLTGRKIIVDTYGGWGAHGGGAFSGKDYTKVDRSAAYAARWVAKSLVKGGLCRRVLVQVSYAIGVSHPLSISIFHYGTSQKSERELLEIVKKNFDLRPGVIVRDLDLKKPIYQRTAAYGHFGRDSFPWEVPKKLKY
Excerpt: Experimental principle: MAT2A can catalyze the conversion of L-methionine and ATP into SAM, inorganic phosphate, and inorganic diphosphate. By adding a chromogenic reagent to the enzymatic reaction system, the content of inorganic phosphates in a sample can be quantitatively detected, thereby characterizing the enzymatic activity of MAT2A.
Experimental material: Tris (Life Science #0497); BSA (Sigma #); MAT2A his-tag (BPS #71401-1); 384 well plate (Corning #3765); L-methionine (Admas #1100469); ATP (Sigma #A7699); MgCl2 (Sigma #M8266); KCl (Sigma #7447-40-7); Brij35 (Sigma #B4184); EDTA (Sigma #E1644)
1. 1×Assaybuffer (buffer composition: Tris, KCl, MgCl2, BSA, Brij35, and EDTA; the solvent was ultrapure water) was prepared. MAT2A his-tag enzyme solution (containing 1.3 μL of MAT2A enzyme and 998.7 μL of 1×Assaybuffer per 1000 μL) and substrate mixed solution (containing 5 μL of ATP, 1.3 μL of L-methionine, and 993.7 μL of 1×Assaybuffer per 1000 μL) were prepared using 1×AssayBuffer.
2. Preparation of compound concentration gradient: The test compound was tested with a starting concentration of 10 μM, and 10 equimolar concentrations were set according to a 3-fold dilution. Specifically, firstly, the compound was diluted into 10 different concentrations of series solutions in a 384 well plate (with final detection concentrations of 10, 3.33, 1.11, 0.37, 0.123, 0.041, 0.0137, 0.0046, 0.0015, and 0.0005 μM), and then 250 nL of the above series solutions was transferred to the 384 well reaction plate using an ultrasonic pipetting system Echo550 for later use. 250 nL of 100% DMSO was added into a negative control well and a positive control well, respectively. Double well test.
3. 15 μL of MAT2A his-tag enzyme solution was added into both the compound well and the positive control well; and 15 μL of 1×Assaybuffer was added into the negative control well.
4. The 384 well plate reaction plate was centrifuged at 1000 rpm for 60 seconds, shaken, mixed well, and incubated for 15 minutes. 10 μL of substrate mixed solution was added into each experimental well of the 384 well reaction plate to initiate the reaction.
5. The 384 well reaction plate was centrifuged at 1000 rpm for 60 seconds, shaken, mixed well, and incubated for 150 minutes.
6. 50 μL of enzyme reaction termination solution Biomol was added into all experimental wells of the 384 well reaction plate to terminate the reaction, centrifuged at 1000 rpm for 60 seconds, and incubated for 15 minutes. OD620 was read and data was processed.
Data analysis: the inhibition rate (%) of the compound was calculated and fitted to obtain the IC50 of the tested compound. Calculation method for compound inhibition rate: Compound inhibition rate (%)=(OD620_max−OD620_stample)/(OD620_max−OD620_min)×100, wherein OD620_stample was the absorbance value of the sample well; OD620 min was the absorbance value of the positive control well, indicating the reading of the wells without enzyme activity; and OD620_max was the absorbance value of the negative control well, indicating the reading of the well without compound inhibition.

SMILES | IC50 (KP-4 cells) | IC50 (MAT2A)
CCOc1c(-c2ccc(OC(F)F)cc2)c(=O)n(-c2ccc3nn(CCOC)cc3c2)c2[nH]ncc12 [Compound 21] | 0.0189 µM | 
O=c1c(-c2ccc(Cl)cc2)c(OCC(F)(F)F)c2cn[nH]c2n1-c1ccc2nn(C3COC3)cc2c1 [Compound 93] | 0.0015 µM | 0.0162 µM
CCOc1c(-c2ccc(OC(F)F)cc2)c(=O)n(-c2ccc3nncn3c2)c2[nH]ncc12 [Compound 26] | 0.659 µM | 0.0135 µM
CCOc1c(-c2ccc(C(F)(F)F)nc2)c(=O)n(-c2ccc3nn(C)cc3n2)c2[nH]ncc12 [Compound 87] |  | 0.0283 µM
CCOc1c(-c2ccc(Cl)cc2)c(=O)n(-c2ccc3nn(C)nc3n2)c2nn(C)cc12 [Compound 138] |  | 0.0507 µM
CCOc1c(-c2ccc(OC)cc2)c(=O)n(-c2ccc3nn(C)cc3c2)c2[nH]ncc12 [Compound 3] | 0.064 µM | 0.0194 µM
CCCOc1c(-c2ccc(Cl)nc2)c(=O)n(-c2ccc3nn(C)cc3c2)c2[nH]ncc12 [Compound 58] | 0.0035 µM | 0.0148 µM
CCOc1c(-c2ccc(Cl)cc2)c(=O)n(-c2ccc3c(cnn3CCN(C)C)c2)c2[nH]ncc12 [Compound 131] |  | 0.0362 µM
COc1ccc(-c2c(NCC3CC3)c3cn[nH]c3n(-c3ccc4nn(C)cc4n3)c2=O)cc1 [Compound 5] | 0.028 µM | 0.0177 µM
CCNc1c(-c2ccc(OC)cc2)c(=O)n(-c2ccc3nn(C)cc3c2)c2[nH]ncc12 [Compound 2] | 0.0708 µM | 0.0175 µM
Cn1cc2cc(-n3c(=O)c(-c4ccc(OC(F)F)cc4)c(OCC4CC4)c4cn[nH]c43)ccc2n1 [Compound 39] |  | 0.015 µM
CCNc1c(-c2ccc(OC)cc2)c(=O)n(-c2ccc(C#N)cc2)c2[nH]ncc12 [Compound 6] |  | 0.708 µM
Cn1cc2cc(-n3c(=O)c(-c4ccc(OC(F)F)cc4)c(OCC(F)(F)F)c4cn[nH]c43)ccc2n1 [Compound 27] | 0.0068 µM | 0.0171 µM
Cn1cc2nc(-n3c(=O)c(-c4ccc(Cl)cc4)c(OCC4CC4)c4cn[nH]c43)ccc2n1 [Compound 96] | 0.032 µM | 0.0176 µM
CCOc1c(-c2ccc(Cl)cc2)c(=O)n(-c2ccc3nn(C)cc3c2)c2cn(C)nc12 [Compound 56] |  | 0.0244 µM
Cc1ccc(-c2c(OCC(F)(F)F)c3cn[nH]c3n(-c3ccc4nn(C)cc4n3)c2=O)cn1 [Compound 89] |  | 0.016 µM
CCOc1c(-c2ccc(OC(F)F)cc2)c(=O)n(-c2ccc3nn(C)cc3c2)c2c1cnn2C [Compound 31] |  | 0.12 µM
CCOc1c(-c2ccc(Cl)cc2)c(=O)n(-c2ccc3nn(C)nc3c2)c2nn(C)cc12 [Compound 136] |  | 0.0179 µM
CCOc1c(-c2ccc(C)nc2)c(=O)n(-c2ccc3nn(CC)cc3c2)c2[nH]ncc12 [Compound 101] |  | 0.0174 µM
CCCc1c(-c2ccc(Cl)cc2)c(=O)n(-c2ccc3nn(C)cc3c2)c2[nH]ncc12 [Compound 112] |  | 0.0183 µM
CCOc1c(-c2ccc(Cl)cc2)c(=O)n(-c2ccc3nn(C)cc3c2)c2[nH]cnc12 [Compound 67] |  | 0.0178 µM
CCOc1c(-c2ccc(C#N)cc2)c(=O)n(-c2ccc3nn(C)cc3c2)c2[nH]ncc12 [Compound 65] |  | 0.016 µM
CCOc1c(-c2ccc(C)nc2)c(=O)n(-c2ccc3nn(C)cc3n2)c2[nH]ncc12 [Compound 86] |  | 0.0203 µM
CCOc1c(-c2ccc(Cl)cc2)c(=O)n(-c2ccn3nc(C)cc3n2)c2[nH]ncc12 [Compound 116] |  | 0.335 µM

SMILES | IC50 (KP-4 cells) | IC50 (MAT2A)
CCOc1c(-c2ccc(OC(F)F)cc2)c(=O)n(-c2ccc3ncnn3c2)c2[nH]ncc12 [Compound 25] | 0.274 µM | 
COCCOc1c(-c2ccc(Cl)cc2)c(=O)n(-c2ccc3nn(C)cc3c2)c2[nH]ncc12 [Compound 60] |  | 0.0142 µM
CCOc1c(-c2ccc(=O)[nH]c2)c(=O)n(-c2ccc3nn(C)cc3c2)c2[nH]ncc12 [Compound 125] |  | 0.0453 µM
CCOc1c(-c2ccc(OC(F)F)cc2)c(=O)n(-c2cnc3nn(C)cc3c2)c2[nH]ncc12 [Compound 40] |  | 0.0558 µM
Cn1cnc2ccc(-n3c(=O)c(-c4ccc(OC(F)F)cc4)c(OCC4CC4)c4cn[nH]c43)cc21 [Compound 32] |  | 0.0146 µM
CCOc1c(-c2ccc(C)cc2)c(=O)n(-c2ccc3nn(C)cc3n2)c2[nH]ncc12 [Compound 133] |  | 0.0274 µM
CCOc1c(-c2ccc(OC(F)F)cc2)c(=O)n(-c2ccc3nccn3c2)c2[nH]ncc12 [Compound 24] | 0.256 µM | 
CCOc1c(-c2ccc(Cl)cc2)c(=O)n(-c2ccc3nn(C)cc3c2)c2cnn(C)c12 [Compound 100] |  | 0.0624 µM
Cn1cc2cc(-n3c(=O)c(-c4ccc(Cl)cc4)c(OCCO)c4cn[nH]c43)ccc2n1 [Compound 59] |  | 0.0207 µM
CCN(C)c1c(-c2ccc(Cl)cc2)c(=O)n(-c2ccc3nn(C)cc3c2)c2[nH]ncc12 [Compound 64] |  | 0.0185 µM
CCOc1c(-c2ccc(Cl)cc2)c(=O)n(-c2ccc3ncn(C4CNC4)c3c2)c2[nH]ncc12 [Compound 35] |  | 0.0608 µM
CCOc1c(-c2ccc(C)nc2)c(=O)n(-c2ccc3nn(C)cc3c2)c2[nH]ncc12 [Compound 48] |  | 0.0163 µM
CCOc1c(-c2ccc(Cl)cc2)c(=O)n(-c2ccc3nnn(C)c3c2)c2nn(C)cc12 [Compound 140] |  | 0.013 µM
CCOc1c(-c2ccc(Cl)cc2)c(=O)n(-c2ccn3nccc3c2)c2[nH]ncc12 [Compound 114] |  | 0.0673 µM
CCOc1c(C2CCCCC2)c(=O)n(-c2ccc3nn(C)cc3c2)c2[nH]ncc12 [Compound 61] |  | 0.0142 µM
CCNc1c(-c2ccc(Cl)cc2)c(=O)n(-c2ccc3c(c2)ncn3C)c2[nH]ncc12 [Compound 16] |  | > 10 µM
CCOc1c(-c2cccc(OC)c2)c(=O)n(-c2ccc3nn(C)cc3c2)c2[nH]ncc12 [Compound 18] |  | 0.0229 µM
[2H]C([2H])([2H])C([2H])([2H])Oc1c(-c2ccc(Cl)cc2)c(=O)n(-c2ccc3nn(C)cc3c2)c2[nH]ncc12 [Compound 142] |  | 0.0103 µM
CCOc1c(-c2ccc(OC(F)F)cc2)c(=O)n(-c2ccn3nccc3c2)c2[nH]ncc12 [Compound 23] | 0.0892 µM | 
CCSc1c(-c2ccc(Cl)cc2)c(=O)n(-c2ccc3nn(C)cc3c2)c2[nH]ncc12 [Compound 130] |  | 0.0112 µM
CCOc1c(-c2ccc(Cl)cc2)c(=O)n(-c2ccc3nn(C)cc3c2)c2nn(CCO)cc12 [Compound 122] |  | 0.0277 µM
CCOc1c(-c2ccc(Cl)cc2)c(=O)n(-c2ccc3nn(C)cc3n2)c2c1cnn2C [Compound 121] |  | 1.12 µM
CCOc1c(-c2ccc(Cl)cc2)c(=O)n(-c2ccc3c(cnn3CCN(C)C)n2)c2[nH]ncc12 [Compound 139] |  | 0.376 µM
CCOc1c(-c2ccc(Cl)cc2)c(=O)n(-c2ccc3ncn(CC)c3c2)c2[nH]ncc12 [Compound 34] |  | 0.0221 µM
